From ChEMBL document CHEMBL1201862, “PubChem BioAssay data set” (2004)
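Exposure lasted 48 hours, with cells grown in 96-well plates and compounds tested at five concentrations. Here, GI50 denotes the concentration required for 50% inhibition of growth.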 The source made the active and inactive calls. No stated cut-off is given here; in the data, active = GI50 up to about 1.1 µM and inactive = higher. Where a SMILES comes first, the peptide text is derived from it. [ ]: non-standard residue; d: D form. Phe(F5) = N[CH](Cc1c(F)c(F)c(F)c(F)c1F)C(=O)O

Assays:
Experiment in all cases: NCI anticancer screen, dose series, 48 h
SK-MEL-2 = tested on: SK-MEL-2
DLD-1 = tested on: DLD-1
HL-60 = tested on: HL-60
NCI/ADR-RES = tested on: NCI/ADR-RES
Hs-578T = tested on: Hs-578T
MDA-MB-435 = tested on: MDA-MB-435
DMS-273 = tested on: DMS-273
IGROV-1 = tested on: IGROV-1
SF-295 = tested on: SF-295
HOP-18 = tested on: HOP-18
NCI-H23 = tested on: NCI-H23
OVCAR-3 = tested on: OVCAR-3
KM-20L2 = tested on: KM-20L2
HCT-15 = tested on: HCT-15
OVCAR-5 = tested on: OVCAR-5
COLO 205 = tested on: COLO 205
HCT-116 = tested on: HCT-116
HCC 2998 = tested on: HCC 2998
SK-MEL-5 = tested on: SK-MEL-5
RXF 393 = tested on: RXF 393
OVCAR-8 = tested on: OVCAR-8
ACHN = tested on: ACHN
CCRF-CEM = tested on: CCRF-CEM
DMS-114 = tested on: DMS-114
LXFL 529 = tested on: LXFL 529
SF-539 = tested on: SF-539
RPMI-8226 = tested on: RPMI-8226
UACC-257 = tested on: UACC-257
MOLT-4 = tested on: MOLT-4
NCI-H460 = tested on: NCI-H460
SR = tested on: SR
NCI-H522 = tested on: NCI-H522
HOP-62 = tested on: HOP-62
DU-145 = tested on: DU-145
M14 = tested on: M14
SNB-78 = tested on: SNB-78
A549 = tested on: A549
T47D = tested on: T47D
MCF7 = tested on: MCF7
U-251 = tested on: U-251
MDA-MB-231 = tested on: MDA-MB-231
EKVX = tested on: EKVX
MDA-N = tested on: MDA-N
UACC-62 = tested on: UACC-62
NCI-H226 = tested on: NCI-H226
M19-MEL = tested on: M19-MEL
PC-3 = tested on: PC-3
OVCAR-4 = tested on: OVCAR-4
HT-29 = tested on: HT-29
SF-268 = tested on: SF-268
LOX IMVI = tested on: LOX IMVI
K562 = tested on: K562
SK-MEL-28 = tested on: SK-MEL-28
CAKI-1 = tested on: CAKI-1
SW-620 = tested on: SW-620
Malme-3M = tested on: Malme-3M
786-0 = tested on: 786-0
SN12C = tested on: SN12C
A498 = tested on: A498
KM12 = tested on: KM12
SK-OV-3 = tested on: SK-OV-3
XF498 = tested on: XF498
SNB-75 = tested on: SNB-75
UO-31 = tested on: UO-31
SNB-19 = tested on: SNB-19
TK-10 = tested on: TK-10
HOP-92 = tested on: HOP-92

COC(=O)C(CC(C)C)NC(=O)C(Cc1c[nH]cn1)NC(=O)CNC(=O)C(NC(=O)C(C)NC(=O)C(Cc1c[nH]c2ccccc12)NC(=O)C(CCC(=O)O)NC(=O)C(N)Cc1c(F)c(F)c(F)c(F)c1F)C(C)C (configuration not stated) (H-[Phe(F5)]EWAVGHL-OMe; configuration not given here)
GI50 (SK-MEL-2): > 12.5 µM (inactive)
GI50 (DLD-1): > 100 µM (inactive)
GI50 (HL-60): > 12.5 µM (inactive)
GI50 (NCI/ADR-RES): > 12.5 µM (inactive)
GI50 (Hs-578T): > 12.5 µM (inactive)
GI50 (MDA-MB-435): > 12.5 µM (inactive)
GI50 (DMS-273): > 100 µM (inactive)
GI50 (IGROV-1): > 12.5 µM (inactive)
GI50 (SF-295): > 12.5 µM (inactive)
GI50 (HOP-18): > 100 µM (inactive)
GI50 (NCI-H23): > 12.5 µM (inactive)
GI50 (OVCAR-3): > 12.5 µM (inactive)
GI50 (KM-20L2): > 100 µM (inactive)
GI50 (HCT-15): > 12.5 µM
GI50 (OVCAR-5): > 12.5 µM (inactive)
GI50 (COLO 205): > 12.5 µM (inactive)
GI50 (HCT-116): > 12.5 µM (inactive)
GI50 (HCC 2998): > 12.5 µM (inactive)
GI50 (SK-MEL-5): > 12.5 µM (inactive)
GI50 (RXF 393): > 12.5 µM (inactive)
GI50 (OVCAR-8): > 12.5 µM (inactive)
GI50 (ACHN): > 12.5 µM (inactive)
GI50 (CCRF-CEM): > 12.5 µM (inactive)
GI50 (DMS-114): > 100 µM (inactive)
GI50 (LXFL 529): > 100 µM (inactive)
GI50 (SF-539): > 12.5 µM (inactive)
GI50 (RPMI-8226): > 12.5 µM (inactive)
GI50 (UACC-257): > 12.5 µM (inactive)
GI50 (MOLT-4): > 12.5 µM (inactive)
GI50 (NCI-H460): > 12.5 µM (inactive)
GI50 (SR): > 12.5 µM (inactive)
GI50 (NCI-H522): > 12.5 µM (inactive)
GI50 (HOP-62): > 12.5 µM (inactive)
GI50 (DU-145): > 12.5 µM (inactive)
GI50 (M14): > 12.5 µM (inactive)
GI50 (SNB-78): > 100 µM (inactive)
GI50 (A549): > 12.5 µM (inactive)
GI50 (T47D): > 12.5 µM (inactive)
GI50 (MCF7): > 12.5 µM (inactive)
GI50 (U-251): > 12.5 µM (inactive)
GI50 (MDA-MB-231): > 12.5 µM (inactive)
GI50 (EKVX): > 12.5 µM (inactive)
GI50 (MDA-N): > 12.5 µM (inactive)
GI50 (UACC-62): > 12.5 µM (inactive)
GI50 (NCI-H226): > 12.5 µM (inactive)
GI50 (M19-MEL): > 100 µM (inactive)
GI50 (PC-3): > 12.5 µM (inactive)
GI50 (OVCAR-4): > 12.5 µM (inactive)
GI50 (HT-29): > 12.5 µM (inactive)
GI50 (SF-268): > 12.5 µM (inactive)
GI50 (LOX IMVI): > 12.5 µM (inactive)
GI50 (K562): > 12.5 µM (inactive)
GI50 (SK-MEL-28): > 12.5 µM (inactive)
GI50 (CAKI-1): > 12.5 µM (inactive)
GI50 (SW-620): > 12.5 µM (inactive)
GI50 (Malme-3M): > 12.5 µM (inactive)
GI50 (786-0): > 12.5 µM (inactive)
GI50 (SN12C): > 12.5 µM (inactive)
GI50 (A498): > 12.5 µM (inactive)
GI50 (KM12): > 12.5 µM (inactive)
GI50 (SK-OV-3): > 12.5 µM (inactive)
GI50 (XF498): > 100 µM (inactive)
GI50 (SNB-75): > 100 µM (inactive)
GI50 (UO-31): > 12.5 µM (inactive)
GI50 (SNB-19): > 100 µM (inactive)

O=CN/C=C/c1cc(O)ccc1O [ERBSTATIN]
GI50 (SK-MEL-2): 29.3 µM (inactive)
GI50 (DLD-1): 16 µM (inactive)
GI50 (HL-60): 5.14 µM (inactive)
GI50 (NCI/ADR-RES): 18.1 µM (inactive)
GI50 (DMS-273): 77.1 µM (inactive)
GI50 (IGROV-1): 26.2 µM (inactive)
GI50 (SF-295): 58.1 µM (inactive)
GI50 (HOP-18): > 40.6 µM (inactive)
GI50 (NCI-H23): 18.8 µM (inactive)
GI50 (OVCAR-3): 9.35 µM (inactive)
GI50 (KM-20L2): 52.2 µM (inactive)
GI50 (HCT-15): 13.3 µM
GI50 (OVCAR-5): > 85.7 µM (inactive)
GI50 (COLO 205): 11.9 µM (inactive)
GI50 (HCT-116): 15.7 µM (inactive)
GI50 (HCC 2998): > 100 µM (inactive)
GI50 (SK-MEL-5): 18.7 µM (inactive)
GI50 (TK-10): 17 µM (inactive)
GI50 (RXF 393): 13 µM (inactive)
GI50 (OVCAR-8): 17.8 µM (inactive)
GI50 (ACHN): 14.8 µM (inactive)
GI50 (CCRF-CEM): 4.11 µM (inactive)
GI50 (DMS-114): 17.6 µM (inactive)
GI50 (LXFL 529): 11.6 µM (inactive)
GI50 (SF-539): 22.7 µM (inactive)
GI50 (RPMI-8226): 26.3 µM (inactive)
GI50 (UACC-257): 13.5 µM (inactive)
GI50 (MOLT-4): 22.9 µM (inactive)
GI50 (NCI-H460): 56.2 µM (inactive)
GI50 (SR): 4.39 µM (inactive)
GI50 (NCI-H522): 4.6 µM (inactive)
GI50 (HOP-62): > 74.1 µM (inactive)
GI50 (DU-145): 30.1 µM (inactive)
GI50 (M14): 14.9 µM (inactive)
GI50 (SNB-78): 19 µM (inactive)
GI50 (A549): > 65.6 µM (inactive)
GI50 (HOP-92): 11.6 µM (inactive)
GI50 (MCF7): 11.3 µM (inactive)
GI50 (U-251): 42.3 µM (inactive)
GI50 (EKVX): 18.6 µM (inactive)
GI50 (UACC-62): 13.7 µM (inactive)
GI50 (NCI-H226): 44 µM (inactive)
GI50 (M19-MEL): 13.3 µM (inactive)
GI50 (PC-3): > 100 µM (inactive)
GI50 (OVCAR-4): 17.8 µM (inactive)
GI50 (HT-29): 22.2 µM (inactive)
GI50 (SF-268): 17.2 µM (inactive)
GI50 (LOX IMVI): 14 µM (inactive)
GI50 (K562): 14.8 µM (inactive)
GI50 (SK-MEL-28): 23.4 µM (inactive)
GI50 (CAKI-1): 12.4 µM (inactive)
GI50 (SW-620): 8.75 µM (inactive)
GI50 (Malme-3M): 17.9 µM (inactive)
GI50 (786-0): 14 µM (inactive)
GI50 (SN12C): 16.7 µM (inactive)
GI50 (A498): 59.7 µM (inactive)
GI50 (KM12): > 89.3 µM (inactive)
GI50 (SK-OV-3): > 62.4 µM (inactive)
GI50 (XF498): 19.8 µM (inactive)
GI50 (SNB-75): 62.4 µM (inactive)
GI50 (UO-31): 29.7 µM (inactive)
GI50 (SNB-19): > 66.7 µM (inactive)
